Data reported in patent publication US12258424B2, “Polypeptides and compositions comprising the same” (priority 2020, dated 2025).
Residues, ends and D or L forms follow the SMILES beside them.

Tests used:
[1] = tested on: IFNγ, PD-L1 and IL-6 in CT26 tumors; test: ELISA of IFNγ, PD-L1 and IL-6 in harvested CT26 tumors; type: in vivo, mouse
Excerpt: (§1) Animal Study. The animal protocol was approved by the University of Missouri-Kansas City, Institutional Animal Care and Use Committee (IACUC). Five-week old male and female Balb/c mice were purchased from Charles Rivers Laboratories (Wilmington, Mass.) and housed in a temperature and humidity controlled room on a 12-hour light-dark cycle. Approximately 5×10^5 CT26 cells were subcutaneously injected into the right flank. The mice were randomly divided into five different groups (10 mice/group, 50% female, 50% male). The mice were intraperitoneally injected with 2 mg/kg peptide daily when the tumor size reached 50-100 mm^3. The anti-mouse PD-L1 antibody (10F.9G2, BioXcell) was administrated as a positive control at a dose of 10 mg/kg every two days. The tumor size was assessed with a caliper and calculated with the formula 0.5×length×width^2. ELISA kits of PD-L1 (Cat #DY1019-05), IFNγ (Cat #DY485-05), and IL-6 (Cat #DY406-05) were used to measure the expressions of PD-L1, IFNγ, and IL-6, respectively, in tumors as per the company's instructions (R & D Systems, Minneapolis, MN).

[2] = tested on: Jurkat T cells co-cultured with DU-145 cancer cells; test: Jurkat T cell apoptosis in co-culture with DU-145 cells (Annexin V/PI); type: cell-based, human; conditions: co-culture with DU-145 (15.1% untreated); peptide 5 μM or antibody 1 μM, 24 hours
Protocol: (§2) Proliferation and Apoptosis Assays. […] Briefly, 3×10^4 Jurkat T cells were cultured alone or co-cultured with 1.5×10^5 DU-145 cancer cells in a 24-well plate for the proliferation assay. For the apoptosis assay, 6×10^4 Jurkat T cells were cultured alone or co-cultured with 3×10^5 DU-145 cancer cells in a 6-well plate. After incubation with the anti-PD-L1 peptides (5 μM) or anti-PD-L1 antibody (1 μM) for 24 hours, Jurkat T cells were harvested from the supernatant. Proliferation of Jurkat cells was determined using the CellTiter-Glo luminescent cell viability assay (Promega, WI), and apoptosis of the cells were determined using the Dead Cell Apoptosis Kit with Annexin V Alexa Fluor® 488 and Propidium Iodide (Thermo-Fisher Scientific, Pittsburgh, PA) as we described before^21.

[3] = tested on: 3D tumor spheroids of MDA-MB-231 cells; test: 3D tumor spheroid penetration assay; type: cell-based, human; conditions: Cy5-labeled, 2 and 6 hours
Protocol: 3D Tumor Spheroid Penetration Assay. 3D spheroids of MDA-MB-231 cells were generated using the Spheroid Formation Extracellular Matrix (ECM) as per the company's protocol (Amsbio, Cambridge, MA). Briefly, 3,000 tumor cells were mixed with 50 μL Spheroid Formation ECM and loaded into a Corning™ 96-well Ultra-low Attachment Treated Spheroid Microplate (Corning, Pittsburgh, PA). The plate was centrifuged at 200 g for 3 min at 4° C. The cells were then incubated at 37° C. until the diameter reached approximately 700 μm. The Cy5-labeled CLP002 peptide and anti-PD-L1 antibody were incubated with the spheroids for 2 or 6 hours. After washing, penetration of the peptide and antibody inside the tumor spheroids was determined using confocal microscopy.

hPD-L1 = hPD-L1 (Homo sapiens, UniProt Q9NZQ7); test: Blockade of the PD-1/PD-L1 interaction, plate coated with human PD-L1 protein; type: binding; design: PD-L1 protein (G&P Biosciences, human PD-L1 ECD, cat #FCL0784B); purchased G&P Biosciences FCL0784B (PD-L1)
Protocol: Ninety-six-well plates were coated with 100 ng of PD-L1 protein (G&P Biosciences, human PD-L1 ECD, cat #FCL0784B. mouse PD-L1, cat #FCL3502B) and later blocked with 2% BSA for 2 hours at room temperature. Various concentrations of peptides were loaded into the wells and incubated for 1 hour at room temperature. […] Streptavidin-HRP (R & D systems) and chromogenic substrate were added into the wells. OD450 was then recorded and referenced to OD540.

[4] = tested on: CT26 colorectal tumor-bearing mouse model; test: Anti-tumor activity in CT26 tumor-bearing Balb/C mice; type: in vivo
Excerpt: as §1
The anti-mouse PD-L1 antibody (BioXcell, 10F.9G2) was administered intraperitoneally every other day at 10 mg/kg. […] In general, CLP002 (SEQ ID NO:2) exerted a better tumor inhibitory effect than CLP003 (SEQ ID NO:3), which was similar to the antibody. […] In FIG. 6e the weight of the tumors harvested at day 14 is shown. The results were represented as the mean±SD (n=10). It is noteworthy that the peptides were screened against the human PD-L1 protein, which, in fact, would compromise the anti-tumor activity of the peptides in a mouse model.

[5] = tested on: Jurkat T cells co-cultured with DU-145 cancer cells; test: Jurkat T cell proliferation in co-culture with DU-145 cells (CellTiter-Glo); type: cell-based, human; conditions: peptide 5 μM, 24 hours
Protocol: as §2

[6] = tested on: CD8+ T cells in CT26 tumor tissues; test: IHC staining of CD8+ T cells in CT26 tumor tissues; type: in vivo, mouse
Protocol: Immunohistochemistry (IHC) Staining. Tumor tissues were fixed in 10% formalin, embedded in paraffin, sectioned, and mounted on glass slides by Truman Medical Centers Anatomic Pathology Core (Kansas City, MO). The slides were heated in Tris buffer (pH 9.0) for 45 min to recover antigen. After deparaffinization and rehydration, the sections were stained with the anti-mouse CD8 alpha antibody (Abcam, ab209775) overnight at 4° C. The slides were incubated with a biotinylated goat anti-rabbit secondary antibody, followed by the DAB chromogen mixture. Four sections (2 male and 2 female) were imaged in each group. For each section, 3 regions were randomly selected for imaging.

[7] = biological target: human PD-L1/CD80 interaction (Homo sapiens, UniProt Q9NZQ7); test: Blockade of the CD80/PD-L1 interaction; type: binding; conditions: at 10 μM, FIG. 8a
human PD-L1/CD80 interaction, sequence (Q9NZQ7 19-238 limits assumed): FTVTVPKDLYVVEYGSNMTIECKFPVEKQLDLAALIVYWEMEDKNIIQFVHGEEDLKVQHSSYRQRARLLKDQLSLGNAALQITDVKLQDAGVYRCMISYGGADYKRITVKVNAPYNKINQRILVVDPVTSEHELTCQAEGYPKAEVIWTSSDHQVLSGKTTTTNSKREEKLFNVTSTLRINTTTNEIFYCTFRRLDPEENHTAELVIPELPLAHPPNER

hPD-L1, sequence (Q9NZQ7 19-238 limits assumed): as above

Compound: CC(C)C[C@H](NC(=O)[C@H](CC(N)=O)NC(=O)[C@H](Cc1c[nH]c2ccccc12)NC(=O)[C@@H](NC(=O)[C@H](Cc1ccc(O)cc1)NC(=O)[C@H](Cc1ccc(O)cc1)NC(=O)[C@H](CO)NC(=O)[C@H](CCCNC(=N)N)NC(=O)[C@H](Cc1c[nH]cn1)NC(=O)[C@@H](N)Cc1c[nH]c2ccccc12)[C@@H](C)O)C(=O)N[C@@H](CC(N)=O)C(=O)N[C@H](C(=O)O)[C@@H](C)O [CLP002] (H-WHRSYYTWNLNT-OH; N-terminus and C-terminus assumed)
- IL-6 expression in tumor tissues [1]: decreased expression of IL-6
- Apoptosis of Jurkat cells [2]: 10.2%
- Tumor spheroid penetration (in words) ([3]; confocal microscopy): better tumor penetration than the antibody
- Depth of penetration from the periphery of the spheroids ([3]; spheroids ~700 μm): approximately 250 μm
- Blocking Efficiency (%) (hPD-L1; human PD-L1 protein): 85%
- Blocking of the human PD-1/PD-L1 interaction (in words) (hPD-L1; peptides at 10 μM, FIG. 2c): highest blocking efficiency
- IC50 (hPD-L1; plate coated with human PD-L1 protein): 2170 nM
- Tumor growth ([4]; peptides 2 mg/kg i.p. daily, antibody 10 mg/kg i.p. every other day): effectively suppressed tumor growth
- Tumor weights at day 14 ([4]; versus saline group): significantly smaller than the saline group
- Effect on Jurkat T cell proliferation [5]: restored Jurkat T cell proliferation
- Density of CD8+ T cells in tumor tissues [6]: significantly increased
- Location of CD8+ T cells in the tumor [6]: penetration of CD8^+ T cells into the tumor tissue
- Blocking efficiency against CD80/PD-L1 interaction [7]: ~48%
